{
  "source": "patent US20070190181A1",
  "about": "“Methods of treating cancer with lipid-based platinum compound forumulations administered intravenously” (priority 2005, published 2007)",
  "key": {"[1]": {"assay": "Nephrotoxicity at MTD (BUN and kidney pathology grading)", "format": "in vivo", "conditions": "four days after injection", "text": "Nephrotoxicity. ICR mice, 7 weeks old, female, were divided into 4 groups with 3 to 4 mice in each. […] Four days after the injection, the mice were euthanized with Nembutal ip. The blood was drawn and the serum was isolated. The blood urea nitrogen (BUN) was quantitatively measured with a calorimetric method at Antech Diagnostics. Organs including duodenum, heart, kidney, liver, lung, and spleen were resected from the mice and fixed with 10% buffered Formalin. The fixed tissues were processed with standard procedure for H and E staining. A pathology expert Dr. Carman Tomos at the Memorial Sloan-Kettering Cancer Center examined kidney tissues and gave a toxicity grade to each kidney tissue sample. The grading was based on the general pathology guidelines for kidney toxicity."}, "Lewis Lung cells": {"system": "Lewis Lung cells", "assay": "murine Lewis lung tumor metastasis model (lung tumor weight)", "format": "in vivo, C57B1/6 mice"}, "[2]": {"assay": "Pharmacokinetics and organ distribution of ip and iv injected L-CDDP and CDDP (platinum by ICP-MS)", "format": "in vivo, ICR mice", "conditions": "8 mg/kg", "procedure": "Pharmacokinetics and organ distribution in animals of ip and iv injected lipid-based cisplatin and cisplatin (Part II). Sixty ICR mice (female, 7 weeks old) were divided into 4 groups. They received intraperitoneal or intravenous injection of L-CDDP or CDDP, separately. The dose was 12 mg/kg for ip L-CDDP and 8 mg/kg for the rest of treatment groups. At each designed time point, three to four mice were anaesthetized with 70 mg/kg of Nembutal ip (e.g., 3, 20, and 40 min, and 2, 8, 24, 48, and 72 h). […] Organs including liver, lung, and spleen were resected from the mice. The organ samples were homogenized in distilled water (4-fold of the sample weight) and digested with nitric acid. The platinum concentration in each sample was measured by Inductively Coupled Plasma-Mass Spectrometer (ICP-MS). The pharmacokinetics profiles (FIGS. 4, 5, and 6, all Y-axes are concentration of μg platinum in one gram of tissue or fluid per mg of injected dose) and parameters (Table 4) of each formulation were simulated and calculated."}},
  "data": [
    {"smiles": "N.N.[Cl][Pt][Cl]", "note": "[CDDP, cis diamminedichloroplatinum]", "values": [
      {"measurement": "increase of BUN level compared with normal controls", "setting": "[1]; ip, p=0.04", "result": 2.1, "unit": "fold"},
      {"measurement": "increase of BUN level compared with normal controls", "setting": "[1]; iv, p=0.008", "result": 6.8, "unit": "fold"},
      {"measurement": "inhibition of growth of Lewis lung tumors", "setting": "Lewis Lung cells; inhalation therapy, nebulized 1 mg/ml, days 5, 8 and 11", "result": "did not significantly inhibit"},
      {"measurement": "inhibition of tumor growth (Lewis lung tumor weight vs saline)", "setting": "Lewis Lung cells; three iv doses of 2 mg/kg on days 5, 8 and 11 post tumor cell injection", "result": "no significant inhibition of tumor growth"},
      {"measurement": "AUC", "setting": "[2]; Liver", "result": 19.96, "unit": "µg·h/g/µg"},
      {"measurement": "AUC", "setting": "[2]; Lung", "result": 5.58, "unit": "µg·h/g/µg"},
      {"measurement": "AUC", "setting": "[2]; Spleen", "result": 8.11, "unit": "µg·h/g/µg"}
    ]}
  ]
}
